In paper PMC11875992 (Cancer research, 2025):

Legend:
[1] = target: KRAS G12C (Homo sapiens, UniProt P01116, G12C); test: cellular thermal stability assay; format: cell-based
[2] = target: KRAS G13D (Homo sapiens, UniProt P01116, G13D); test: cellular thermal stability assay in HCT-116 lysates, western blot; format: biochemical
Sequence of KRAS G13D (P01116 2-186 G13D): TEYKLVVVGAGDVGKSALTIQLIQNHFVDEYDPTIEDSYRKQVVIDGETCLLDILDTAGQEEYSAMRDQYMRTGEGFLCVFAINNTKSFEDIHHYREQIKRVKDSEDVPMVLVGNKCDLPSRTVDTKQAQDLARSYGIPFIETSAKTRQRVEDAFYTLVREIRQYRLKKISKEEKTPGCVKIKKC

Sequence of KRAS G12C (P01116 2-186 G12C): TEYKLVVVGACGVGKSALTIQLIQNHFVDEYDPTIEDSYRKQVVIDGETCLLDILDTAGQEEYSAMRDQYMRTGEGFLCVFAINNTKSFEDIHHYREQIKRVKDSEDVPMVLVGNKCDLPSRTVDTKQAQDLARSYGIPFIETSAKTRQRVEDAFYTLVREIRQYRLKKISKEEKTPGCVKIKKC

`COc1cc(/C=C2/C(C)=C(CC(=O)NCc3ccco3)c3cc(F)ccc32)cc(OC)c1O` [ADT-007, (Z)-2-(5-fluoro-1-(4-hydroxy-3,5-dimethoxybenzylidene)-2-methyl-1H-inden-3-yl)-N-(furan-2-ylmethyl)acetamide] was tested, and the EC50 [1] was 8.49 nM and the EC50 [2] was 0.45 nM.
